Assay results published in US12365671B2, “Crystalline hydrate of topramezone sodium salt and preparation method therefor” (ROTAM AGROCHEM INTERNATIONAL COMPANY LIMITED, priority 2021, dated 2025).

Assay: Formulation preparation behaviour (jet pulverization, granulation)
Assay type: physicochemical
Details: e.g. soluble granule, sodium salt
Description: The crystalline 2.5 hydrate of topramezone sodium salt of the present invention has huge advantages over the anhydrous form of topramezone sodium salt with respect to formulation preparation. The anhydrous topramezone sodium salt can be prepared according to the preparation method of the topramezone potassium salt alike compound reported in US2002025910A. […] Furthermore, the formulation preparation process is difficult. For example, when preparing the soluble granule, creaming and caking of the ingredients frequently occurs, and granulation thus becomes difficult.

Row | SMILES | behaviour during jet pulverization / granulation
1 | Cc1c(C(=O)c2cnn(C)c2[O-])ccc(S(C)(=O)=O)c1C1=NOCC1.[Na+] [anhydrous topramezone sodium salt] | easy to agglomerate during jet pulverization
2 | Cc1c(C(=O)c2cnn(C)c2[O-])ccc(S(C)(=O)=O)c1C1=NOCC1.[Na+] [crystalline 2.5 hydrate of topramezone sodium salt] | can be granulated easily
